Measured values from publication PMC9481563, “Structural insights into the pSer/pThr dependent regulation of the SHP2 tyrosine phosphatase in insulin and CD28 signaling” (Nature Communications, 2022).
Residue numbers refer to the chain shown, from its start.

Columns and labels:
Type in all cases: binding
Conditions in all cases: competitive FP titration vs CF-ppIRS1 100 nM, protein fixed; n = 3 technical replicates
[1] = molecular target: T1, inactive SHP2 catalytic domain Flapmut (H426F) (Homo sapiens, UniProt Q06124, C459S/H426F); assay: Fluorescence polarization titrations, SHP2 Flapmut
T1 construct: SHP2 H425F (Flapmut); 219-528 + C459S; His6 (N); made in house; host or cells: E. coli BL21 (DE3)
T1 sequence (Q06124 219-528 H426F/C459S): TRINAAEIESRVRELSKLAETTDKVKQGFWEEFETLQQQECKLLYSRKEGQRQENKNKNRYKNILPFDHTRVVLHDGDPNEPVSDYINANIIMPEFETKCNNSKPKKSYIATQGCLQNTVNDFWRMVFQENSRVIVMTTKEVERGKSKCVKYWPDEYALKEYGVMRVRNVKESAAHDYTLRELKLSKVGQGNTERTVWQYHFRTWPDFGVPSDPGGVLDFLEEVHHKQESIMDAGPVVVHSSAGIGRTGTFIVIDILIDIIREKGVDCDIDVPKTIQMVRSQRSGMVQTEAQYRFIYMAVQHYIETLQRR
Source text: (§1) The two SH2 domains of PI3KR1 (UniProt P27986; nSH2: 321−433 cSH2: 614–724) were cloned from HEK293T cDNA pool, and subsequently ligated into a modified pET vector encoding maltose binding protein (MBP) tag on the N-terminal and a hexa-His tag on the C-terminal end of the construct. Similarly, the catalytic, tyrosine phosphatase domains of PTPRε (P23469 first domain: 107–399) and PTP1B (P18031; 1–229) were cloned from a HEK293T cDNA pool, and inserted into a pBH4 vector encoding an N-terminal His6 tag (for the final binding experiments, an MBP-tagged version of PTPRε was employed). […] Surface mutants of SHP2 were constructed from the SHP2-C459S plasmid, using the QuickChange protocol. The D425A and H426A catalytic site mutants and all enzymatically active surface mutants were generated similarly, but from the plasmid encoding the wild-type catalytic domain of SHP2. Wild-type C-terminal FLAG-tagged human IRS1 was cloned between HindIII-NotI sites of pcDNA3.1(+) vector (#V79020 Invitrogen, Waltham MA USA). Ser/Ala mutant IRS1 was generated by replacing the region of S616/S636/S666/S736 positions with a cassette carrying S616A/S636A/S666A/S736A mutations. All constructs were validated by complete Sanger sequencing before protein expression and purification. The oligonucleotide sequences used are shown on Supplementary table 4.
(§2) Fluorescence polarization (FP) assays were performed as follows: In direct titration experiments, protein concentration was varied in an 1/2 or 2/3 dilution series (90 µl protein+ 45 µl mix), while concentration of the reporter peptide (CF-ppIRS1) was kept constant at 100 nM. In competitive titrations, the labelled CF-ppIRS1 peptide and protein were both fixed (at 50–80% saturation) and the unlabelled competitor peptide concentration was varied. Fluorescence polarization was always measured in triplicates, on black Corning low volume round bottom 384-well plates (with 10 ul volumes), using a BioTek Cytatation 5 reader, with the green fluorescent protein (GFP) cube filter set (ex: 485/20, em: 528/20, gain: 50, height: 7.5). Fluorescence polarization data was evaluated on Origin 2018. The dissociation constants (Kd) were determined by using the appropriate quadratic and cubic equations inserted as a user-defined function and applying nonlinear fit until convergence. The fitting formulae are shown at Supplementary note 1. Kd ratio distributions for Fig. 6 were calculated using a Monte-Carlo approach (Supplementary note 2).
(§3) Supplementary note 1. Curve fitting of fluorescence polarization (FP) measurements.
(§4) To evaluate polarization values from direct and competitive titrations, we used the following fitting formulae in Origin 2018, as detailed below.
(§5) Direct titration curves were fitted according to the following formula: […]
(§6) Where Imin is the minimal anisotropy, Imax is the (asymptotically estimated) maximal intensity. K0 is the starting concentration of the protein, while T0 is the (fixed) concentration of the labelled peptide and Kd is the dissociation constant.
(§7) Competitive titration curves were fitted with a different formula (In addition to those defined above, constants KdT KdB B0 T0 and D0 here refer to the Kd derived from the direct titration, the unknown Kd of the analyte, the labelled peptide concentration, the competitor peptide concentration as well as the protein concentration, respectively).
(§8) The ± sign refers to two different scenarios, depending on the sign of discriminant (KdT > KdB or […]). For unknown analytes, the choice of sign is not arbitrary, as the fitting will not converge unless the appropriate formula is chosen: […]
(§9) Where A, B and C correspond to the following expressions: […]

[2] = molecular target: T2, inactive SHP2 catalytic domain Loopinv (R362E) (Homo sapiens, UniProt Q06124, C459S/R362E); assay: Fluorescence polarization titrations, SHP2 Loopinv
T2 construct: SHP2 R362E (Loopinv); 219-528 + C459S; His6 (N); made in house; host or cells: E. coli BL21 (DE3)
T2 sequence (Q06124 219-528 R362E/C459S): T1 sequence (Q06124 219-528 H426F/C459S) with R144E, F208H
Source text: as §1, §2, §3, §4, §5, §6, §7, §8, §9

[3] = molecular target: T3, inactive SHP2 catalytic domain Hillmut (K274E) (Homo sapiens, UniProt Q06124, C459S/K274E); assay: Fluorescence polarization titrations, SHP2 Hillmut
T3 construct: SHP2 K274E (Hillmut); 219-528 + C459S; His6 (N); made in house; host or cells: E. coli BL21 (DE3)
T3 sequence (Q06124 219-528 K274E/C459S): T1 sequence (Q06124 219-528 H426F/C459S) with K56E, F208H
Source text: as §1, §2, §3, §4, §5, §6, §7, §8, §9

| Compound | Kd [1] [µM] | Kd [2] [µM] | Kd [3] [µM] |
| --- | --- | --- | --- |
| CC[C@H](C)[C@H](NC(=O)[C@H](CC(N)=O)NC(=O)[C@@H](NC(=O)[C@H](Cc1ccc(OP(=O)(O)O)cc1)NC(=O)[C@H](CCC(=O)O)NC(=O)CNC(=O)[C@@H]1CCCN1C(=O)[C@H](COP(=O)(O)O)NC(=O)[C@H](CCCCN)NC(=O)[C@@H]1CCCN1C(=O)[C@@H](N)CCC(=O)O)C(C)C)C(=O)N[C@@H](CCC(=O)O)C(=O)N[C@@H](Cc1ccccc1)C(=O)O [ppSRev-IRS1] | 0.54 ± 0.03 | 0.67 ± 0.16 | 2.56 ± 0.28 |
| CSCC[C@H](NC(=O)[C@H](Cc1ccc(OP(=O)(O)O)cc1)NC(=O)[C@H](CC(=O)O)NC(=O)[C@H](CO)NC(=O)[C@H](Cc1c[nH]cn1)NC(=O)[C@H](CC(C)C)NC(=O)[C@H](CC(C)C)NC(=O)[C@H](CCCNC(=N)N)NC(=O)[C@H](CO)NC(=O)[C@@H](N)CCCNC(=N)N)C(=O)N[C@@H](CC(N)=O)C(=O)N[C@@H](CCSC)C(=O)N[C@H](C(=O)N1CCC[C@H]1C(=O)N[C@@H](CCCNC(=N)N)C(=O)N[C@@H](CCCNC(=N)N)C(=O)O)[C@@H](C)OP(=O)(O)O [ppCD28] | 9.96 ± 0.47 | 15.2 ± 0.49 | 11 ± 0.57 |
| CSCC[C@H](NC(=O)[C@@H]1CCCN1C(=O)[C@H](CCSC)NC(=O)[C@H](Cc1ccc(OP(=O)(O)O)cc1)NC(=O)[C@H](CC(=O)O)NC(=O)CNC(=O)[C@H](CO)NC(=O)CNC(=O)[C@H](CCCCN)NC(=O)[C@H](CCCNC(=N)N)NC(=O)CN)C(=O)N[C@@H](CO)C(=O)N1CCC[C@H]1C(=O)N[C@@H](CCCCN)C(=O)N[C@@H](CO)C(=O)O [p0IRS1] | 172 ± 4.89 | 61.8 ± 16.2 | 83.9 ± 2.58 |
| CC[C@H](C)[C@H](NC(=O)[C@H](CC(N)=O)NC(=O)[C@@H](NC(=O)[C@H](Cc1ccc(OP(=O)(O)O)cc1)NC(=O)[C@H](CCC(=O)O)NC(=O)CNC(=O)[C@@H]1CCCN1C(=O)[C@H](CO)NC(=O)[C@H](CCCCN)NC(=O)[C@@H]1CCCN1C(=O)[C@@H](N)CCC(=O)O)C(C)C)C(=O)N[C@@H](CCC(=O)O)C(=O)N[C@@H](Cc1ccccc1)C(=O)O [p0SRev-IRS1] | 6.05 ± 0.29 | 9.35 ± 1.54 | 14.8 ± 0.88 |
| CSCC[C@H](NC(=O)[C@H](Cc1ccc(OP(=O)(O)O)cc1)NC(=O)[C@H](CC(=O)O)NC(=O)[C@H](CO)NC(=O)[C@H](Cc1c[nH]cn1)NC(=O)[C@H](CC(C)C)NC(=O)[C@H](CC(C)C)NC(=O)[C@H](CCCNC(=N)N)NC(=O)[C@H](CO)NC(=O)[C@@H](N)CCCNC(=N)N)C(=O)N[C@@H](CC(N)=O)C(=O)N[C@@H](CCSC)C(=O)N[C@H](C(=O)N1CCC[C@H]1C(=O)N[C@@H](CCCNC(=N)N)C(=O)N[C@@H](CCCNC(=N)N)C(=O)O)[C@@H](C)O [p0CD28] | 63.7 ± 3.1 | 45.7 ± 7.49 | 54.6 ± 5.12 |
| CSCC[C@H](NC(=O)[C@@H]1CCCN1C(=O)[C@H](CCSC)NC(=O)[C@H](Cc1ccc(OP(=O)(O)O)cc1)NC(=O)[C@H](CC(=O)O)NC(=O)CNC(=O)[C@H](CO)NC(=O)CNC(=O)[C@H](CCCCN)NC(=O)[C@H](CCCNC(=N)N)NC(=O)CN)C(=O)N[C@@H](COP(=O)(O)O)C(=O)N1CCC[C@H]1C(=O)N[C@@H](CCCCN)C(=O)N[C@@H](CO)C(=O)O [ppIRS1] | 3.89 ± 0.19 | 7.53 ± 1.1 | 2.23 ± 0.14 |
